Assay results as given in patent US8912181B2 (Taiho Pharmaceutical Co., Ltd., priority 2011, dated 2014).

Key:
[1] = molecular target: human HSP90 alpha protein (N-terminal, amino acids 2 to 236) (Homo sapiens (Human), UniProt P07900); test: Determination of HSP90-binding activity (AlphaScreen competitive assay with biotinylated geldanamycin); details: inhibition of binding of biotinylated geldanamycin to purified HSP90 N-terminal protein, read-out: HSP-binding activity IC50
Procedure, shortened: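 His-tagged N-terminal construct (aa 2–236) expressed in E. coli and purified was preincubated with compound 2 h at room temperature, then biotinylated geldanamycin (40 nM/well) added for 1 h. AlphaScreen nickel-chelate acceptor/streptavidin donor beads, 1 h dark; percent inhibition calculated against no-compound signal.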

[2] = system: SK-BR-3 cells; test: Determination of cell growth inhibition (crystal violet staining method); type: cell-based; details: Homo sapiens; breast cancer cells SK-BR-3, 72 hours culture with test substance
Procedure, shortened: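 SK-BR-3 cells seeded 5,000/well, cultured 24 h at 37 °C, then exposed to compound for 72 h. Cells fixed with glutaraldehyde, stained with 0.05% crystal violet, eluted and read at 540 nm; percent growth inhibition calculated versus untreated wells.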

SMILES | IC50 [1] | IC50 [2]
CCCNc1cc(C(N)=O)ccc1-c1cc(C(F)(F)F)nc2c(-n3cnc(-c4cnn(C)c4)c3)cccc12 [Example 87, 4-(8-(4-(1-Methyl-1H-pyrazol-4-yl)-1H-imidazol-1-yl)-2-(trifluoromethyl)quinolin-4-yl)-3-(propylamino)benzamide] | 0.28 µM | 0.08 µM
NC(=O)c1ccc(-c2cc(C(F)(F)F)nc3c(-n4cnc(-c5cccnc5)c4)cccc23)cn1 [Example 88, 5-(8-(4-(Pyridin-3-yl)-1H-imidazol-1-yl)-2-(trifluoromethyl)quinolin-4-yl)picolinamide] | 0.35 µM | 0.07 µM
CCNc1cc(-c2cc(C(F)(F)F)nc3c(-n4cnc(-c5cnn(CC)c5)c4)cccc23)ccc1C(N)=O [Example 89, 4-(8-(4-(1-Ethyl-1H-pyrazol-4-yl)-1H-imidazol-1-yl)-2-(trifluoromethyl)quinolin-4-yl)-2-(ethylamino)benzamide] | 0.22 µM | 0.01 µM
CCn1cc(-c2cn(-c3cccc4c(-c5ccc(C(N)=O)c(NC(C)(C)C)c5)cc(C(F)(F)F)nc34)cn2)cn1 [Example 90, 2-(Tert-butylamino)-4-(8-(4-(1-ethyl-1H-pyrazol-4-yl)-1H-imidazol-1-yl)-2-(trifluoromethyl)quinolin-4-yl)benzamide] | 0.58 µM | 0.03 µM
CC(C)(C)Nc1cc(-c2cc(C(F)(F)F)nc3c(-n4cnc(-c5cnn(C(F)F)c5)c4)cccc23)ccc1C(N)=O [Example 92, 2-(Tert-butylamino)-4-(8-(4-(1-difluoromethyl-1H-pyrazol-4-yl)-1H-imidazol-1-yl)-2-(trifluoromethyl)quinolin-4-yl)benzamide] | 0.79 µM | 0.02 µM
Cc1cc2c(-n3cnc(-c4cnn(C)c4)c3)cccc2c(-c2ccc(C(N)=O)c(NC(C)(C)C)c2)n1 [Example 93, 2-(Tert-butylamino)-4-(3-methyl-5-(4-(1-methyl-1H-pyrazol-4-yl)-1H-imidazol-1-yl)isoquinolin-1-yl)benzamide] | 0.1 µM | 0.02 µM
Cc1cc(C(N)=O)ccc1-c1cc(C(F)(F)F)nc2c(-n3cnc(-c4cnn(C(F)F)c4)c3)cccc12 [Example 94, 4-(8-(4-(1-Difluoromethyl-1H-pyrazol-4-yl)-1H-imidazol-1-yl)-2-(trifluoromethyl)quinolin-4-yl)-3-methylbenzamide] | 0.5 µM | 0.11 µM
Cc1cc2c(-n3cnc(-c4cnn(C)c4)c3)cccc2c(-c2ccc(C(N)=O)cc2C)n1 [Example 95, 3-Methyl-4-(3-methyl-5-(4-(1-methyl-1H-pyrazol-4-yl)-1H-imidazol-1-yl)isoquinolin-1-yl)benzamide] | 0.4 µM | 1.02 µM
Cn1cc(-c2cn(-c3cccc4c(-c5ccc(C(N)=O)c(NC(C)(C)C)c5)nccc34)cn2)cn1 [Example 96, 2-(Tert-butylamino)-4-(5-(4-(1-methyl-1H-pyrazol-4-yl)-1H-imidazol-1-yl)isoquinolin-1-yl)benzamide] | 0.14 µM | 0.06 µM
Cc1cc(-c2ccc(C(N)=O)c(NC(C)(C)C)c2)c2cccc(-n3cnc(-c4cnn(C)c4)c3)c2n1 [Example 97, 2-(Tert-butylamino)-4-(2-methyl-8-(4-(1-methyl-1H-pyrazol-4-yl)-1H-imidazol-1-yl)quinolin-4-yl)benzamide] | 0.16 µM | 0.02 µM
COCCNc1cc(-c2nc(C)cc3c(-n4cnc(-c5cnn(C)c5)c4)cccc23)ccc1C(N)=O [Example 98, 2-(2-Methoxyethylamino)-4-(3-methyl-5-(4-(1-methyl-1H-pyrazol-4-yl)-1H-imidazol-1-yl)isoquinolin-1-yl)benzamide] | 0.08 µM | 0.02 µM
Cc1ccc(-c2cn(-c3cccc4c(-c5ccc(C(N)=O)c(NC(C)(C)C)c5)cc(C(F)(F)F)nc34)cn2)cn1 [Example 99, 2-(Tert-butylamino)-4-(8-(4-(6-methylpyridin-3-yl)-1H-imidazol-1-yl)-2-(trifluoromethyl)quinolin-4-yl)benzamide] | 0.27 µM | 0.04 µM
Cc1ccc(-c2cn(-c3cccc4c(-c5ccc(C(N)=O)cc5C)cc(C(F)(F)F)nc34)cn2)cn1 [Example 100, 3-Methyl-4-(8-(4-(6-methylpyridin-3-yl)-1H-imidazol-1-yl)-2-(trifluoromethyl)quinolin-4-yl)benzamide] | 0.34 µM | 0.26 µM
Cc1cc(-c2ccc(C(N)=O)c(N)c2)c2cccc(-n3cnc(-c4cnn(C)c4)c3)c2n1 [Example 101, 2-Amino-4-(2-methyl-8-(4-(1-methyl-1H-pyrazol-4-yl)-1H-imidazol-1-yl)quinolin-4-yl)benzamide] | 0.12 µM | 0.12 µM
Cc1cc(-c2ccc(C(N)=O)cc2C)c2cccc(-n3cnc(-c4cnn(C)c4)c3)c2n1 [Example 102, 3-Methyl-4-(2-methyl-8-(4-(1-methyl-1H-pyrazol-4-yl)-1H-imidazol-1-yl)quinolin-4-yl)benzamide] | 0.25 µM | 0.63 µM
CCc1cc(-c2ccc(C(N)=O)c(NC(C)(C)C)c2)c2cccc(-n3cnc(-c4cnn(C)c4)c3)c2n1 [Example 103, 2-(Tert-butylamino)-4-(2-ethyl-8-(4-(1-methyl-1H-pyrazol-4-yl)-1H-imidazol-1-yl)quinolin-4-yl)benzamide] | 0.12 µM | 0.01 µM
CCc1cc(-c2ccc(C(N)=O)c(N)c2)c2cccc(-n3cnc(-c4cnn(C)c4)c3)c2n1 [Example 104, 2-Amino-4-(2-ethyl-8-(4-(1-methyl-1H-pyrazol-4-yl)-1H-imidazol-1-yl)quinolin-4-yl)benzamide] | 0.06 µM | 0.01 µM
Cn1cc(-c2cn(-c3cccc4c(-c5ccc(C(N)=O)c(NC(C)(C)C)c5)cc(C5CC5)nc34)cn2)cn1 [Example 105, 2-(Tert-butylamino)-4-(2-cyclopropyl-8-(4-(1-methyl-1H-pyrazol-4-yl)-1H-imidazol-1-yl)quinolin-4-yl)benzamide] | 0.4 µM | 0.02 µM
NC(=O)c1ccc(-c2cc(C(F)(F)F)nc3c(-n4cnc(-c5ccccc5)c4)cccc23)cc1N [Example 108, 2-Amino-4-(8-(4-phenyl-1H-imidazol-1-yl)-2-(trifluoromethyl)quinolin-4-yl)benzamide] | 3.75 µM | 0.34 µM

Now from value to compound:

IC50 [1] | IC50 [2] | SMILES
4.36 µM | 0.21 µM | CC(C)OCCNc1cc(-c2cc(C(F)(F)F)nc3c(-n4cnc(-c5ccccc5)c4)cccc23)ccc1C(N)=O [Example 109, 2-(Isopropoxyethylamino)-4-(8-(4-phenyl-1H-imidazol-1-yl)-2-(trifluoromethyl)quinolin-4-yl)benzamide]
0.38 µM | 0.1 µM | NC(=O)c1ccc(-c2cc(C(F)(F)F)nc3c(-c4cnc5ccccc5c4)cccc23)cc1N [Example 110, 2-Amino-4-(2′-(trifluoromethyl)-3,8′-biquinolin-4′-yl)benzamide]
0.84 µM | 0.06 µM | CC(C)OCCNc1cc(-c2cc(C(F)(F)F)nc3c(-c4cnc5ccccc5c4)cccc23)ccc1C(N)=O [Example 111, 2-(2-Isopropoxyethylamino)-4-(2′-(trifluoromethyl)-3,8′-biquinolin-4′-yl)benzamide]
0.5 µM | 0.02 µM | CC(C)c1cc(-c2ccc(C(N)=O)c(NC(C)(C)C)c2)c2cccc(-n3cnc(-c4cnn(C)c4)c3)c2n1 [Example 112, 2-(Tert-butylamino)-4-(2-isopropyl-8-(4-(1-methyl-1H-pyrazol-4-yl)-1H-imidazol-1-yl)quinolin-4-yl)benzamide]
0.08 µM | 0.01 µM | CC(C)c1cc(-c2ccc(C(N)=O)c(N)c2)c2cccc(-n3cnc(-c4cnn(C)c4)c3)c2n1 [Example 113, 2-Amino-4-(2-isopropyl-8-(4-(1-methyl-1H-pyrazol-4-yl)-1H-imidazol-1-yl)quinolin-4-yl)benzamide]
0.07 µM | 0.01 µM | NC(=O)c1ccc(-c2nc(C(F)(F)F)nc3c(-c4cnc5ccccc5c4)cccc23)cc1NC1CCC(O)CC1 (centres unmarked) [Example 114, 2-(4-Hydroxycyclohexylamino)-4-(8-(quinolin-3-yl)-2-(trifluoromethyl)quinazolin-4-yl)benzamide]
0.14 µM | 0.01 µM | NC(=O)c1ccc(-c2nc(C3CC3)nc3c(-c4cnc5ccccc5c4)cccc23)cc1NC1CCC(O)CC1 (centres unmarked) [Example 115, 4-(2-Cyclopropyl-8-(quinolin-3-yl)quinazolin-4-yl)-2-(4-hydroxycyclohexylamino)benzamide]
0.29 µM | 0.05 µM | NC(=O)c1ccc(-c2ccnc3c(-c4cnc5ccccc5c4)cccc23)cc1NC1CCC(O)CC1 (centres unmarked) [Example 117, 4-(3,8′-Biquinolin-4′-yl)-2-(4-hydroxycyclohexylamino)benzamide]
0.25 µM | 0.06 µM | Cc1ccc(-c2cn(-c3cccc4c(-c5ccc(C(N)=O)c(N)c5)cc(C(F)(F)F)nc34)cn2)cn1 [Example 118, 2-Amino-4-(8-(4-(6-methylpyridin-3-yl)-1H-imidazol-1-yl)-2-(trifluoromethyl)quinolin-4-yl)benzamide]
0.83 µM | 0.84 µM | CCNc1cc(-c2cccc3c(-n4cnc(-c5cnn(C)c5)c4)ccnc23)ccc1C(N)=O [Example 119, 2-(Ethylamino)-4-(4-(4-(1-methyl-1H-pyrazol-4-yl)-1H-imidazol-1-yl)quinolin-8-yl)benzamide]
0.19 µM | 0.03 µM | CCc1cc(-c2ccc(C(N)=O)c(N)c2)c2cccc(-c3cnc4ccccc4c3)c2n1 [Example 120, 2-Amino-4-(2′-ethyl-3,8′-biquinolin-4′-yl)benzamide]
0.18 µM | 0.02 µM | CC(C)c1cc(-c2ccc(C(N)=O)c(N)c2)c2cccc(-c3cnc4ccccc4c3)c2n1 [Example 121, 2-Amino-4-(2′-isopropyl-3,8′-biquinolin-4′-yl)benzamide]
